Reference: ChEMBL document CHEMBL1201862, “PubChem BioAssay data set” (2004)
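All cell lines were grown in 96-well plates and treated with compound for 48 hours. GI50 marks 50% less growth.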 Active and inactive are the calls of the source. Cut-off read from the data, not from the text of the source: active = GI50 up to about 1.1 µM and inactive = higher.

Key:
Experiment in all cases: growth of human tumour cells (NCI), 48 h
A498 = system: A498
HT-29 = system: HT-29
DMS-114 = system: DMS-114
UACC-257 = system: UACC-257
SNB-19 = system: SNB-19
Malme-3M = system: Malme-3M
ACHN = system: ACHN
M14 = system: M14
RXF 393 = system: RXF 393
KM12 = system: KM12
HCC 2998 = system: HCC 2998
SK-MEL-2 = system: SK-MEL-2
SR = system: SR
SK-MEL-28 = system: SK-MEL-28
786-0 = system: 786-0
K562 = system: K562
SF-295 = system: SF-295
MOLT-4 = system: MOLT-4
COLO 205 = system: COLO 205
NCI-H522 = system: NCI-H522
SNB-78 = system: SNB-78
SF-268 = system: SF-268
SN12C = system: SN12C
SK-MEL-5 = system: SK-MEL-5
CCRF-CEM = system: CCRF-CEM
RXF 631 = system: RXF 631
SK-OV-3 = system: SK-OV-3
EKVX = system: EKVX
LXFL 529 = system: LXFL 529
HOP-18 = system: HOP-18
LOX IMVI = system: LOX IMVI
TK-10 = system: TK-10
DMS-273 = system: DMS-273
OVCAR-3 = system: OVCAR-3
OVCAR-4 = system: OVCAR-4
HCT-116 = system: HCT-116
NCI-H460 = system: NCI-H460
NCI-H23 = system: NCI-H23
SW-620 = system: SW-620
HCT-15 = system: HCT-15
HOP-62 = system: HOP-62
A549 = system: A549
M19-MEL = system: M19-MEL
HL-60 = system: HL-60
KM-20L2 = system: KM-20L2
OVCAR-8 = system: OVCAR-8
U-251 = system: U-251
DLD-1 = system: DLD-1
SNB-75 = system: SNB-75
UO-31 = system: UO-31
SF-539 = system: SF-539
OVCAR-5 = system: OVCAR-5
NCI-H226 = system: NCI-H226
IGROV-1 = system: IGROV-1
CAKI-1 = system: CAKI-1
UACC-62 = system: UACC-62
RPMI-8226 = system: RPMI-8226
XF498 = system: XF498

In the case of `COc1cc(/C=C(\C)c2ccc3c(c2)OCO3)cc(OC)c1OC`, the GI50 (A498) is reported as 17.6 µM (inactive), the GI50 (HT-29) is reported as 25.7 µM (inactive) and the GI50 (DMS-114) is reported as 25.1 µM (inactive). For the same compound, the GI50 (UACC-257) was 29.2 µM (inactive), the GI50 (SNB-19) was 50.7 µM (inactive) and the GI50 (Malme-3M) was 19.8 µM (inactive). The GI50 (ACHN) was 10.3 µM (inactive), the GI50 (M14) was 36.7 µM (inactive) and the GI50 (RXF 393) was 34.1 µM (inactive). The GI50 (KM12) was 44.5 µM (inactive), the GI50 (HCC 2998) was 25.5 µM (inactive) and the GI50 (SK-MEL-2) was 23.4 µM (inactive). For the same compound, the GI50 (SR) was 19.3 µM (inactive), the GI50 (SK-MEL-28) was 41.1 µM (inactive) and the GI50 (786-0) was 21.3 µM (inactive). The GI50 (K562) was 10.4 µM (inactive), the GI50 (SF-295) was 25.2 µM (inactive) and the GI50 (MOLT-4) was 16.7 µM (inactive). The GI50 (COLO 205) was 18.5 µM (inactive), the GI50 (NCI-H522) was 20.2 µM (inactive) and the GI50 (SNB-78) was 37.9 µM (inactive). For the same compound, the GI50 (SF-268) was 26.9 µM (inactive), the GI50 (SN12C) was 26.2 µM (inactive) and the GI50 (SK-MEL-5) was 11.7 µM (inactive). The GI50 (CCRF-CEM) was 19.8 µM (inactive), the GI50 (RXF 631) was 28.6 µM (inactive) and the GI50 (SK-OV-3) was 28 µM (inactive). For the same compound, the GI50 (EKVX) was 10.4 µM (inactive), the GI50 (LXFL 529) was 14.7 µM (inactive) and the GI50 (HOP-18) was 64 µM (inactive). For the same compound, the GI50 (LOX IMVI) was 16 µM (inactive), the GI50 (TK-10) was 47 µM (inactive) and the GI50 (DMS-273) was 26 µM (inactive). The GI50 (OVCAR-3) was 34.8 µM (inactive), the GI50 (OVCAR-4) was 32.5 µM (inactive) and the GI50 (HCT-116) was 31.8 µM (inactive). The GI50 (NCI-H460) was 34.2 µM (inactive), the GI50 (NCI-H23) was 37.5 µM (inactive) and the GI50 (SW-620) was 19.1 µM (inactive). The GI50 (HCT-15) was 26.1 µM, the GI50 (HOP-62) was 70 µM (inactive) and the GI50 (A549) was 18.5 µM (inactive). The GI50 (M19-MEL) was 31.4 µM (inactive), the GI50 (HL-60) was 15.7 µM (inactive) and the GI50 (KM-20L2) was 32.4 µM (inactive). The GI50 (OVCAR-8) was 29.8 µM (inactive), the GI50 (U-251) was 50.4 µM (inactive) and the GI50 (DLD-1) was 18.5 µM (inactive). For the same compound, the GI50 (SNB-75) was 5 µM (inactive), the GI50 (UO-31) was 27.3 µM (inactive) and the GI50 (SF-539) was 14.1 µM (inactive). For the same compound, the GI50 (OVCAR-5) was 55.3 µM (inactive), the GI50 (NCI-H226) was 33.7 µM (inactive) and the GI50 (IGROV-1) was 25.1 µM (inactive).
For `CC(C)N(C(=O)C12C3C4C1C1C2C3C41C(=O)N(C(C)C)C(C)C)C(C)C` (centres undefined), the GI50 (A498) was > 50 µM (inactive), the GI50 (HT-29) was > 50 µM (inactive) and the GI50 (DMS-114) was > 50 µM (inactive). The GI50 (UACC-257) was > 50 µM (inactive), the GI50 (SNB-19) was > 50 µM (inactive) and the GI50 (Malme-3M) was > 50 µM (inactive). For the same compound, the GI50 (ACHN) was > 50 µM (inactive), the GI50 (M14) was > 50 µM (inactive) and the GI50 (CAKI-1) was > 50 µM (inactive). For the same compound, the GI50 (KM12) was > 50 µM (inactive), the GI50 (HCC 2998) was > 50 µM (inactive) and the GI50 (SK-MEL-2) was > 50 µM (inactive). For the same compound, the GI50 (SK-MEL-28) was > 50 µM (inactive), the GI50 (786-0) was > 50 µM (inactive) and the GI50 (K562) was > 50 µM (inactive). For the same compound, the GI50 (SF-295) was > 50 µM (inactive), the GI50 (MOLT-4) was > 50 µM (inactive) and the GI50 (COLO 205) was > 50 µM (inactive). The GI50 (NCI-H522) was > 50 µM (inactive), the GI50 (SNB-78) was > 50 µM (inactive) and the GI50 (SF-268) was > 50 µM (inactive). The GI50 (SN12C) was > 50 µM (inactive), the GI50 (SK-MEL-5) was > 50 µM (inactive) and the GI50 (CCRF-CEM) was > 50 µM (inactive). The GI50 (RXF 631) was > 50 µM (inactive), the GI50 (SK-OV-3) was > 50 µM (inactive) and the GI50 (UACC-62) was > 50 µM (inactive). For the same compound, the GI50 (EKVX) was > 50 µM (inactive), the GI50 (RPMI-8226) was > 50 µM (inactive) and the GI50 (LXFL 529) was > 50 µM (inactive). The GI50 (LOX IMVI) was > 50 µM (inactive), the GI50 (TK-10) was > 50 µM (inactive) and the GI50 (DMS-273) was > 50 µM (inactive). The GI50 (OVCAR-3) was > 50 µM (inactive), the GI50 (OVCAR-4) was > 50 µM (inactive) and the GI50 (HCT-116) was > 50 µM (inactive). The GI50 (NCI-H460) was > 50 µM (inactive), the GI50 (NCI-H23) was > 50 µM (inactive) and the GI50 (SW-620) was > 50 µM (inactive). For the same compound, the GI50 (HCT-15) was greater than 50 µM, the GI50 (HOP-62) was > 50 µM (inactive) and the GI50 (A549) was > 50 µM (inactive). For the same compound, the GI50 (M19-MEL) was > 50 µM (inactive), the GI50 (HL-60) was > 50 µM (inactive) and the GI50 (XF498) was > 50 µM (inactive). The GI50 (KM-20L2) was > 50 µM (inactive), the GI50 (OVCAR-8) was > 50 µM (inactive) and the GI50 (U-251) was > 50 µM (inactive). For the same compound, the GI50 (DLD-1) was > 50 µM (inactive), the GI50 (SNB-75) was > 50 µM (inactive) and the GI50 (UO-31) was > 50 µM (inactive). For the same compound, the GI50 (SF-539) was > 50 µM (inactive), the GI50 (OVCAR-5) was > 50 µM (inactive) and the GI50 (NCI-H226) was > 50 µM (inactive). For the same compound, the GI50 (IGROV-1) was > 50 µM (inactive).
